Our source for the GI50 and TGI values is PubChem BioAssay (NCI).

Assay in all cases: DTP human tumour cell line panel, 48 h
Assay [1] relates to T-47D breast.
In assay [2] the test system is TK-10 renal.
For assay [3], the system named is KM12 colon.
The test system of assay [4] is SK-MEL-28 melanoma.
Assay [5] deals with MDA-MB-231 breast.
Assay [6] concerns 786-0 renal.
The subject of assay [7] is SNB-19 CNS.
Assay [8] concerns OVCAR-4 ovarian.
Assay [9] deals with UACC-62 melanoma.
In assay [10] the test system is RPMI-8226 leukemia.

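Each compound was tested at five concentrations against cells in 96-well plates for 48 hours. GI50 is the concentration that inhibits growth by half. TGI denotes the concentration required for complete inhibition of growth.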

What is called GI50 is the concentration at which growth is held to half of that of the control. What is called TGI is the concentration at which net growth stops. Low readings indicate greater sensitivity of the cells, high ones lower sensitivity of the cells. Turning to `COc1cc(-c2nn(-c3ccc(NC(=O)Nc4ccc(Cl)c(C(F)(F)F)c4)cc3)cc2-c2ccncc2)ccc1Cl`, the GI50 in [1] is 2.66 µM; in [2], 3.06 µM; in assay [3], 1.36 µM; in [4], 1.88 µM; in assay [5] it was 1.76 µM; in assay [6], 1.8 µM. Further, the GI50 was 2.53 µM in assay [7], 2.34 µM in assay [8] and 1.77 µM in assay [9]. In addition, the TGI in assay [1] came to 7.37 µM; in [2] it was 13.2 µM; in assay [3], 2.87 µM; in assay [4], 3.9 µM; in [5], 3.82 µM; in assay [6], 4.27 µM. Besides, the values for the TGI in assay [7], in assay [8] and in assay [9] were 8.13 µM, 8.45 µM and 3.75 µM, respectively.
Turning to `Nc1nc2ccccc2c2[nH]c3ccccc3c12`, the GI50 is 1.21 µM in assay [1]; 1.57 µM in [2]; 1.04 µM in assay [3]; 1.79 µM in [4]; 1.22 µM in assay [5]; 1.12 µM in assay [6]. For the same compound, the figures for the GI50 in [7], in assay [8] and in assay [9] were 1.1 µM, 1.5 µM and 13.6 µM, respectively. The TGI is 2.91 µM in assay [1]; 4.18 µM in assay [2]; 3.26 µM in assay [3]; 3.19 µM in assay [4]; 2.57 µM in assay [5]; 2.61 µM in assay [6]. In addition, the figures for the concentration for total growth inhibition (TGI) in assay [7], in [8] and in assay [9] were 3.71 µM, 3.52 µM and 27.3 µM, respectively.
With `O=C1/C(=N/N=C(c2ccccc2)c2ccccc2)c2ccccc2-c2ccccc21`, the TGI in assay [1], in assay [2], in assay [3], in [4], in [5] and in assay [6] was above 100 µM throughout. The TGI in assay [7], in assay [8] and in assay [9] was above 100 µM each time.
Regarding `Cc1cc(NCCCNc2ccnc3cc(Cl)ccc23)nc(Nc2ccc(C(=O)N3CCCCC3)cc2)n1`, the GI50 in [1] was 2.15 µM; in [2] it was 1.99 µM; in assay [3] it was 2.96 µM; in assay [4], 2 µM; in assay [6], 1.83 µM; in assay [7], 3.55 µM. Further, the values for the GI50 in [8], in assay [10] and in [9] were 2.83 µM, 2.27 µM and 2.02 µM, respectively. In addition, the concentration for total growth inhibition (TGI) in assay [1] amounted to 6.2 µM; in assay [2], 4.59 µM; in [3] it was 11.6 µM; in assay [4], 3.75 µM; in assay [6] it was 3.72 µM; in assay [7], 12.5 µM. For the same compound, the TGI in [8] stood at 12.6 µM; in [10] it was 5.66 µM; in [9] it was 3.81 µM.
Consider `COc1ccc(-c2cnc(SCC(=O)c3c(C)n(C)n(-c4ccccc4)c3=O)n2-c2ccc(OC)cc2)cc1`, for which the GI50 in assay [1], in assay [2], in assay [3], in [4], in assay [5] and in [6] was above 50 µM throughout. The GI50 in assay [7] was above 50 µM; in assay [10] it was 6.87 µM; in assay [9], above 50 µM. Moreover, the total growth inhibition concentration (TGI) in assay [1], in [2], in assay [3], in assay [4], in assay [5] and in [6] was above 50 µM in each case. Besides, the TGI in [7], in [10] and in assay [9] was above 50 µM throughout.
Regarding `O=C1C2=C(C(=O)c3c(O)ccc(O)c31)N(c1cccnc1)Cc1ccccc1O2`, the GI50 in assay [1] was 0.221 µM; in [2], 0.27 µM; in assay [3], 1.33 µM; in assay [4], 0.266 µM; in [5], 0.265 µM; in assay [6], 0.211 µM. Also, the GI50 is 2.6 µM in assay [7], 0.386 µM in assay [10] and 0.183 µM in [9]. In addition, the TGI came to 0.635 µM in [1]; 0.983 µM in [2]; 5.23 µM in [3]; 0.644 µM in assay [4]; 0.876 µM in [5]; 0.605 µM in [6]. In addition, the values for the TGI in [7], in [10] and in assay [9] were 10.7 µM, 2.03 µM and 0.396 µM, respectively.
In the case of `N=C(N)c1ccc(CS(=O)(=O)F)cc1`, the GI50 in assay [1], in assay [2], in assay [3], in assay [4], in assay [5] and in assay [6] was above 100 µM each time. Moreover, the GI50 in [7], in [8] and in assay [9] was above 100 µM each time. The total growth inhibition concentration (TGI) in assay [1], in assay [2], in assay [3], in assay [4], in [5] and in assay [6] was above 100 µM each time. For the same compound, the TGI in assay [7], in assay [8] and in [9] was above 100 µM throughout.
